Measured values published in a melting point compilation (Tetko et al.; mined from patent text by program, amines drawn as free bases though some values may be those of a salt).

Structure (SMILES)	melting point
O=C1CCCc2c1c1cc(F)ccc1n2Cc1ccc(F)cc1	182 to 183 °C
CN(C)C(=O)N(C)c1nnc(C(C)(C)C#N)s1	92 to 94 °C
COCOc1c(OC)cc(/C=C/C(=O)/C=C/c2cc(OC)c(OCOC)c(OC)c2)cc1OC	146 to 148 °C
O=C(Cc1ccc(Cl)cc1)c1cccs1	98 to 99 °C
OCc1ccc(O)c(CO)c1CNCCCCCCOCC1CCCCC1	72 to 74 °C
O=C(O)c1cn(C2COC2)c2c(F)c(F)c(F)c(O)c2c1=O	242 to 244 °C
O=C1NC(=O)C(c2cn3c4c(cccc24)CCC3)=C1c1ccc(F)cc1	234 to 235 °C
NC(=O)c1sc2nc(N3CCC(NCC(O)c4ccncc4)CC3)cc(C(F)(F)F)c2c1N (centres undefined)	217 to 220 °C
COc1cc(Cl)ccc1-c1ccc(C(C)=O)cc1	125 to 127 °C
O=C1c2ccc(Cl)cc2C(=O)N1CCN1CCC(c2noc3cc(F)ccc23)CC1	170 to 171 °C
O=C1c2cc([N+](=O)[O-])ccc2CC1Br (centres undefined)	102 to 105 °C
CC1(C)Cc2nc(C3CC3)c(Cc3ccc(C(F)(F)F)cc3)c(-c3ccc(F)c(F)c3)c2C(O)C1 (centres undefined)	126 to 127 °C
Cc1cn(CC#CCN2CCCC2=O)cn1	134 to 137 °C
CCCOCCOc1ccc(Oc2ccc3c(c2)C=C(C(=O)Nc2ccc(CN(C)C4CCOCC4)cc2)CCS3(=O)=O)cc1OCC	159 to 160 °C
FC(F)(F)c1ccc(/C=C/c2cc(Cl)cc(Cl)c2)cc1	98 to 100 °C
COc1ccc2nc(COc3cccc(C(=O)Nc4cc(CCCS(=O)(=O)c5ccc(Cl)cc5)ccc4OCC(=O)O)c3)sc2c1	187 to 189 °C
Cc1c2n(c(=O)[nH]c1=O)CCCS2	196 to 198 °C
CN1CC[C@@H](c2c(O)cc(O)c3c(=O)cc(-c4ccc([N+](=O)[O-])cc4Br)oc23)[C@@H]1CO	186 °C
COCC(C#N)=Cc1cc(OC)c2c(c1)OCO2	115 °C
CN(C)Cc1nnc(CO)n1-c1ccc(Cl)cc1C(=O)c1ccccc1	138 to 141 °C

Structure (SMILES)	melting point
Cc1ccc(S(=O)(=O)N2[C@@H](CCC#N)CC[C@H]2c2ccc(F)cc2)cc1 (racemic)	86 °C
O=Cc1cnc2sc3c(n12)CCCCCC3	106 to 107 °C
COc1ccc2c(c1)CN(c1ccc3sccc3c1)C2=O	183 to 186 °C
NC(=O)CNC(=O)c1sc(Nc2ccccc2)c2c1CCc1cnoc1-2	213 to 214 °C
Nc1cccc(CN2CCC(OC(=O)c3ccccc3)CC2)c1	95 to 97 °C
CCCCCCCCCCCCCCc1c[nH]c(C(=O)OC)c1	80 to 82 °C
O=C1OC(CO)CN1c1ccc(O)cc1 (centres undefined)	189 °C
OCCCc1ccc2ccn(C3CCN(CCc4ccc(F)cc4)CC3)c2c1	131 to 133 °C
COC(=O)c1cccc(-c2ncc(O)cn2)c1	219 to 223 °C
Clc1ccc(-c2coc3ccc(Br)cc23)c(Cl)c1	116 to 117 °C
CC(C)(C)NC(=S)Nc1cc(Cl)cc(Cl)c1	164 to 165 °C
CC(C#Cc1ccc(C=Cc2ccc(F)cc2)s1)N(O)C(N)=O (centres undefined)	177 °C
O=C(O)CN(CCN(CC(=O)O)C(COCc1ccccc1)C(=O)O)C(COCc1ccccc1)C(=O)O (centres undefined)	177 °C
COc1ccc(Br)cc1C(=O)C(Br)C(Br)c1cccc(Br)c1 (centres undefined)	124 to 126 °C
CC(C)(CO)NS(=O)(=O)c1cccc(NC(=O)c2cnn3c(C(F)(F)F)cc(-c4ccc(Cl)cc4)nc23)c1	271 °C
CCCCC(=O)OC1(C(=O)CCl)CCC2C3CC(C)C4CC(=O)CCC4(C)C3(F)C(=O)CC21C (centres undefined)	67 to 72 °C
CSCCC1=NS(=O)(=O)NC(N)=N1	243 to 246 °C
O=C(O)c1ccc(-c2nnn[nH]2)nc1	257 to 259 °C
CN1CCN(c2cc(NC(=O)OC(C)(C)C)c(N)cc2C#Cc2ccccc2)CC1	81 to 85 °C
CN(C)C(=O)c1ncccc1OC1SCC(O)C(O)C1O (centres undefined)	80 to 85 °C

Now from value to molecule:

melting point	Structure (SMILES)
125 to 126 °C	Cc1ccc2c(c1)C(C=O)c1ccccc1C2C=O (centres undefined)
193 to 194 °C	O=C(O)CCCc1ccc(NS(=O)(=O)c2ccc(Cl)c(Cl)c2)cn1
126 to 128 °C	COC(=O)Cc1c(NC(C)=O)n(C)c2ccccc12
191 to 195 °C	Cc1cc(C)c2cc(-c3ccccc3)c(N)nc2n1
163 °C	COc1cc(-c2nc3ccc(OCC(C)N(C)C)cc3n2Cc2ccccc2C(F)(F)F)cc(OC)c1OC (centres undefined)
> 245 °C	N#Cc1cnc2sc(-c3ccccc3)cc2c1Nc1cccc2cc[nH]c12
198 to 200 °C	COc1c(N)cc(-c2c3ccccc3c(Br)c3sc(C)c(C)c23)cc1Br
206 to 207 °C	CCOC(=O)C1C=Nc2c(ccc3cc(C(=O)N(C)Cc4ccc(F)cc4)cnc23)C1=O (centres undefined)
236 to 238 °C	COC(=O)c1cc(O)cc2cc(-c3ccc(O)cc3)oc12
166 to 169 °C	Oc1ccccc1Nc1nccc(-c2cccnc2)n1
170 to 174 °C	CC(CO)n1cnc2cnc3ccccc3c21 (centres undefined)
174 to 177 °C	C#Cc1cccc(Nc2ncnc3ccc(-c4ccccc4C(=O)OCC)cc23)c1
178 to 180 °C	Nc1ccc(C=Cc2ccc3ccccc3n2)cc1
223 to 225 °C	COc1cc2ncnc(N3CCc4c(Br)ccc(C)c43)c2cc1OC
195 to 197 °C	CC(=O)c1ccc2c(c1)ncn2-c1cccc(-c2cccnc2)c1
106 to 108 °C	CCCCNC(=O)Oc1ccc(Oc2ccc(Cl)cc2)cc1
70 °C	COC(=O)c1ccc(S(C)(=O)=O)c(COc2ccnn2C)c1Cl

melting point	Structure (SMILES)
183 °C	Cn1cccc1-c1cc2cccnc2[nH]1
199 to 200 °C	COc1nc2cc(F)c(Cl)c(N)c2nc1OC
153 to 154 °C	CC(=O)NC1(C)CCCc2nc(OCc3ccccc3)ccc21 (centres undefined)
145 to 147 °C	CCCn1nc2c(Cl)nc3ccccc3c2c1C
158 to 162 °C	COc1ccc2c(c1)CCC(c1ccccc1)=C2c1ccc(O)cc1
128 to 130 °C	O=C(O)CCc1ccc2c(c1)C(=O)c1ccccc1CO2
122 to 124 °C	CCc1nn(CCO)c(CC)c1Oc1cc(C#N)cc(-n2cncn2)c1
317 to 318 °C	Cn1cc(C(N)=O)c(=O)c2ccc(F)cc21
184 to 186 °C	CCCn1cc2c(C3(F)C(=O)Nc4ccc(Br)cc43)ncnc2n1 (centres undefined)
135 to 141 °C	CCC1CCCCN1C(=O)C=Cc1c(-c2cccc(NC)c2)nn2ccccc12 (centres undefined)
172 to 174 °C	Cc1c(Cl)nn2cc(-c3ccc(F)cc3)nc2c1C
149 to 151 °C	CCOC(=O)C(C(=O)OCC)=C1NC(=O)N(Cc2ccccc2)C1=O
113 to 116 °C	COc1ccc(-c2nc(C(=O)OC(C)C)cc(Cl)c2Cl)cc1
156 °C	COc1cc(N(C)C(C)C)ccc1CN1C(=O)C(C)(c2ccccc2Cl)c2cc(Cl)ccc21 (centres undefined)
188 to 190 °C	c1ccc2c(c1)CSc1nncn1-2
101 to 103 °C	O=C(Nc1ccc(CCO)c(CO)c1)OCc1ccccc1
140 to 141 °C	COc1nc(C)nc(NC(=O)NS(=O)(=O)c2ccccc2OC(F)F)n1
